Test results taken from patent US8536351B2, “2-aryl-5-heterocyclyl-cyclohexane-1,3,dione compounds and their use as herbicides” (Syngenta Crop Protection LLC, priority 2007, dated 2013).

How the values were obtained:
Format in all cases: in vivo
[1] = tested on: Digitaria sanguinalis (DIGSA); test: Pre-emergence activity, glasshouse pot test (100=total damage to plant; 0=no damage to plant); settings: rate 500 g/ha, evaluated 19, 20 or 21 days after spraying
Protocol: (§1) Monocotyledonous and dicotyledonous test plants were sown in standard soil in pots. After cultivation for one day (pre-emergence) or after 10 days cultivation (post-emergence) under controlled conditions in a glasshouse, the plants were sprayed with an aqueous spray solution derived from the formulation of the technical active ingredient in 0.6 ml acetone and 45 ml formulation solution containing 10.6% Emulsogen EL (Registry number 61791-12-6), 42.2% N-methyl pyrrolidone, 42.2% dipropylene glycol monomethyl ether (Registry number 34590-94-8) and 0.2% X-77 (Registry number 11097-66-8). The test plants were then grown in a greenhouse under optimum conditions until, 14 or 15 days later for post-emergence and 19, 20 or 21 days for pre-emergence, the test was evaluated (100=total damage to plant; 0=no damage to plant). Alopecurus myosuroides (ALOMY), Avena fatua (AVEFA), Lolium perenne (LOLPE), Setaria faberi (SETFA), Digitaria sanguinalis (DIGSA), Echinochloa crus-galli (ECHCG) Pre-Emergence Activity

[2] = tested on: Echinochloa crus-galli (ECHCG); test: as above; settings: rate 500 g/ha, evaluated 19, 20 or 21 days after spraying
Protocol: as §1

Setaria faberi (SETFA) [3] = test: as above; settings: rate 500 g/ha, evaluated 19, 20 or 21 days after spraying
Protocol: as §1

Lolium perenne (LOLPE) [4] = test: as above; settings: rate 500 g/ha, evaluated 19, 20 or 21 days after spraying
Protocol: as §1

Avena fatua (AVEFA) [5] = test: as above; settings: rate 500 g/ha, evaluated 19, 20 or 21 days after spraying
Protocol: as §1

[6] = tested on: Alopecurus myosuroides (ALOMY); test: as above; settings: rate 500 g/ha, evaluated 19, 20 or 21 days after spraying
Protocol: as §1

[7] = tested on: Digitaria sanguinalis (DIGSA); test: Post-emergence activity, glasshouse pot test (100=total damage to plant; 0=no damage to plant); settings: evaluated 14 or 15 days after spraying; for pest or weed control at 500 g/ha: rate 500 g/ha
Protocol: as §1, with “Post-Emergence” for “Pre-Emergence”

[8] = tested on: Echinochloa crus-galli (ECHCG); test: as above; settings: evaluated 14 or 15 days after spraying; for pest or weed control at 500 g/ha: rate 500 g/ha
Protocol: as §1, with “Post-Emergence” for “Pre-Emergence”

Setaria faberi (SETFA) [9] = test: as above; settings: evaluated 14 or 15 days after spraying; for pest or weed control at 500 g/ha: rate 500 g/ha
Protocol: as §1, with “Post-Emergence” for “Pre-Emergence”

Lolium perenne (LOLPE) [10] = test: as above; settings: 336 h, evaluated 14 or 15 days after spraying; for pest or weed control at 500 g/ha: rate 500 g/ha
Protocol: as §1, with “Post-Emergence” for “Pre-Emergence”

Avena fatua (AVEFA) [11] = test: as above; settings: 336 h, evaluated 14 or 15 days after spraying; for pest or weed control at 500 g/ha: rate 500 g/ha
Protocol: as §1, with “Post-Emergence” for “Pre-Emergence”

[12] = tested on: Alopecurus myosuroides (ALOMY); test: as above; settings: 336 h, evaluated 14 or 15 days after spraying; for pest or weed control at 500 g/ha: rate 500 g/ha
Protocol: as §1, with “Post-Emergence” for “Pre-Emergence”

| Structure (SMILES) | pest or weed control at 500 g/ha [1] [%] | pest or weed control at 500 g/ha [2] [%] | pest or weed control at 500 g/ha (Setaria faberi (SETFA) [3]) [%] | pest or weed control at 500 g/ha (Lolium perenne (LOLPE) [4]) [%] | pest or weed control at 500 g/ha (Avena fatua (AVEFA) [5]) [%] | pest or weed control at 500 g/ha [6] [%] | pest or weed control at 500 g/ha [7] [%] | pest or weed control at 500 g/ha [8] [%] | pest or weed control at 500 g/ha (Setaria faberi (SETFA) [9]) [%] | pest or weed control at 500 g/ha (Lolium perenne (LOLPE) [10]) [%] | pest or weed control at 500 g/ha (Avena fatua (AVEFA) [11]) [%] | pest or weed control at 500 g/ha [12] [%] | pest or weed control at 125 g/ha ([7]; rate 125 g/ha) [%] | pest or weed control at 125 g/ha ([8]; rate 125 g/ha) [%] | pest or weed control at 125 g/ha (Setaria faberi (SETFA) [9]; rate 125 g/ha) [%] | pest or weed control at 125 g/ha (Lolium perenne (LOLPE) [10]; rate 125 g/ha) [%] | pest or weed control at 125 g/ha (Avena fatua (AVEFA) [11]; rate 125 g/ha) [%] | pest or weed control at 125 g/ha ([12]; rate 125 g/ha) [%] |
| --- | --- | --- | --- | --- | --- | --- | --- | --- | --- | --- | --- | --- | --- | --- | --- | --- | --- | --- |
| CCc1cc(C)cc(CC)c1C1=C(O)CC(C2CCCSC2)CC1=O (stereo not drawn) [Compound T13] | 100 | 100 | 100 | 100 | 80 | 90 | 90 | 90 | 100 | 100 | 100 | 100 |  |  |  |  |  |  |
| Cc1cc(C)c(C2=C(O)CC(C3CCCSC3)CC2=O)c(C)c1 (stereo not drawn) [Compound T14] | 90 | 70 | 90 | 70 | 20 | 60 | 90 | 80 | 90 | 60 | 30 | 70 |  |  |  |  |  |  |
| Cc1cc(C)c(C2=C(O)CC(C3CCSCC3)CC2=O)c(C)c1 (stereo not drawn) [Compound T15] | 70 | 20 | 90 | 80 | 60 | 60 | 80 | 70 | 90 | 60 | 20 | 60 |  |  |  |  |  |  |
| CCc1cc(C)cc(C)c1C1=C(O)CC(C2CCCSC2)CC1=O (stereo not drawn) [Compound T16] | 100 | 100 | 100 | 100 | 100 | 0 | 100 | 90 | 100 | 90 | 80 | 100 |  |  |  |  |  |  |
| Cc1cc(C)c(C2=C(O)CC(C3CCS(=O)(=O)CC3)CC2=O)c(C)c1 (stereo not drawn) [Compound T17] | 60 | 60 | 50 | 0 | 70 | 20 | 90 | 90 | 90 | 0 | 20 | 20 |  |  |  |  |  |  |
| CCc1cc(C)cc(CC)c1C1=C(O)CC(C2CCSCC2)CC1=O (stereo not drawn) [Compound T18] | 100 | 100 | 100 | 100 | 100 | 100 | 100 | 70 | 100 | 70 | 100 | 90 |  |  |  |  |  |  |
| CCc1cc(C)cc(CC)c1C1=C(O)CC(C2CCCS(=O)(=O)C2)CC1=O (stereo not drawn) [Compound T19] | 100 | 100 | 100 | 100 | 90 | 100 | 100 | 100 | 100 | 80 | 90 | 80 |  |  |  |  |  |  |
| CCc1cc(C)cc(CC)c1C1=C(O)CC(C2CCS(=O)(=O)CC2)CC1=O (stereo not drawn) [Compound T20] | 100 | 100 | 100 | 100 | 100 | 100 | 100 | 100 | 90 | 60 | 70 | 80 |  |  |  |  |  |  |
| CCc1cc(C)cc(C)c1C1=C(O)CC(C2CCSCC2)CC1=O (stereo not drawn) [Compound T21] | 100 | 100 | 100 | 40 | 70 | 40 | 80 | 100 | 90 | 70 | 70 | 80 |  |  |  |  |  |  |
| CCc1cc(C)cc(CC)c1C1=C(O)CC(C2CCC[S+]([O-])C2)CC1=O (stereo not drawn) [Compound T23] | 100 | 50 | 70 | 100 | 100 | 100 |  |  |  |  |  |  | 70 | 80 | 50 | 90 | 90 | 90 |
